Columns and labels:
[1] = system: spontaneous motor activity; test: spontaneous motor activity in rodents (sedative properties), procedure of Dews; assay type: in vivo; conditions: 100-200 mg/kg, mice or rats
Description: The sedative properties of the compounds of this invention were determined by measuring spontaneous motor activity in rodents by the procedure described by P. Dews, Brit. J. Pharmacol. 8, 46 (1953).

audiogenic seizures = test: protection against audiogenic seizures in DBA mice (method of Simler et al.); assay type: in vivo, mice of the DBA strain; conditions: 50-200 mg/kg
Source text: This ability is further shown by the protective effect of this treatment on audiogenic seizures in mice of the DBA strain measured by the general method described by Simler et al., Biochem. Pharmacol. 22, 1701 (1973), which is currently used to evidence antiepileptic activity.

reserpine ptosis = reserpine ptosis test of Rubin et al. (anti-depressant activity); assay type: in vivo; conditions: 50 mg/kg i.p. in mice one hour after 2 mg/kg i.v. reserpine; 3 hours after drug administration; control reserpinized animals 6.5
Description: The ability of the compounds of this invention at doses ranging from 50 to 200 mg/kg, to alleviate reserpine ptosis has been shown by the classical test of B. Rubin et al., J. Pharmacol. 120, 125 (1957), which is currently used to determine anti-depressant activity. For instance, in intraperitoneal injection 50 mg/kg of 4-amino-5-yne-hexanoic acid in mice, one hour after an intravenous injection of 2 mg/kg reserpine dissolved in 2% ascorbic acid/water results in a palpebral aperture of 5.5, 3 hours after drug administration as compared to 6.5 for control reserpinized animals.

[2] = loss of body weight in rats on daily dosing; assay type: in vivo; conditions: rats weighing 190 g; oral 25 mg/kg for four days (not a sedative dose); saline group 250 g
Description: For instance, rats weighing 190 g, when given for four days, oral doses of 25 mg/kg 4-amino-5-yne-hexanoic acid (which is not a sedative dose) weigh only 170 gms as compared to 250 g for animals of the same group which were given saline for the same period.

[3] = system: γ-aminobutyric acid transaminase; conditions: literature compounds; cited from earlier work
[4] = system: brain level of γ-aminobutyric acid; conditions: literature compound, cited from earlier work

Row | Structure (SMILES) | time after administration at which decreased motor activity is still observable ([1]; i.v., i.p. or oral) [h] | time at which decreased motor activity appears after administration ([1]; i.v., i.p. or oral) [h] | effect on spontaneous motor activity ([1]; intravenous, intraperitoneal or oral route) | duration of protection against audiogenic seizures (audiogenic seizures) | protection against audiogenic seizures (audiogenic seizures; one hour after treatment) | palpebral aperture (reserpine ptosis) | body weight after treatment [2] [gms] | type of inhibition of γ-aminobutyric acid transaminase [3] | effect on brain levels of γ-aminobutyric acid [4] | duration of the effect on brain γ-aminobutyric acid ([4]; reversible effect)
1 | C#CC(N)CCC(=O)O (racemic) [4-amino-5-yne-hexanoic acid, 4-Amino-5-yne-hexanoic acid] | ≥ 48 | 1 | substantially decreased motor activity | over 16 hours | complete protection | 5.5 | 170 | – | – | –
2 | NCC#CC(=O)O [4-aminotetrolic acid] | – | – | – | – | – | – | – | competitive reversible inhibitor | – | –
3 | CCCC(CCC)C(=O)O [n-dipropylacetate] | – | – | – | – | – | – | – | competitively inhibiting | elevate brain levels of γ-aminobutyric acid | about 2 hours

— patent US3959356A, “Acetylene derivatives of amino acids” (Richardson-Merrell Inc., priority 1975, dated 1976)
